Test results published in patent US8013144B2, “hnRNP K expression-inhibiting compound and siRNA sequence thereof” (Chang Gung University, priority 2009, dated 2011).

System: NPC-TW02 and NPC-TW02/TP
Test: cytotoxicity assay with 5′-DFUR, apoptosis assay (annexin V)
Type: cell-based
Settings: TP over-expression, 72 hours
Method: Refer to FIG. 1A and FIG. 1B. A cell line of nasopharyngeal cancer NPC-TW02/TP is established to stably express exogenous TP. First, the TP-expression carrier pcDNA3.1-PT is transfected to the cell line. Next, the cell line is screened and then cultivated in a culture solution having 500 μg/ml G418. Next is performed a cytotoxicity assay, wherein NPC-TW02 and NPC-TW02/TP are respectively processed with 5′-DFUR (a product of Sigma-Aldrich, St. Louis, Mo., USA). Next, the cell lines are further cultivated for 72 hours. Next, the cell membranes are everted to expose phosphatidylserine. Then, phosphatidylserine is analyzed with the Vybrant® Apoptosis Assay Kit #2 (a product of Invitrogen).
Firstly, 2×10^5 cells are taken out and washed with PBS. Next, a buffer solution (10 mM HEPES, 140 mM NaCl, 2.5 mM CaCl2, pH 7.4) is used to adjust the solution to have a cell concentration of 2×10^6/mL. Next, 5 μl Alexa Fluor® 488 annexin V is added into […], and then the cell suspension reacts at an ambient temperature for 15 minutes. Next, the cell specimens (10000 events) are analyzed with a flow cytometer (a product of Becton Dickinson), as shown in FIG. 3. […] Then, phosphatidylserine is analyzed with the Vybrant® Apoptosis Assay Kit #2 (a product of Invitrogen).

C[C@H]1O[C@@H](n2cc(F)c(=O)[nH]c2=O)[C@H](O)[C@@H]1O [5′-DFUR, 5-fluoro-5′-deoxyuridine]
sensitivity of nasopharyngeal cancer cells to 5′-DFUR (apoptosis): more sensitive
